Source: ChEMBL document CHEMBL3864140, “Melanogenesis inhibitory activity of a 7-O-9'-linked neolignan from Alpinia galanga fruit” (Bioorg Med Chem, 2016)

Assays:
[1] = Antimelanogenic activity in theophylline-stimulated mouse B16-4A5 cells assessed as inhibition of melanogenesis at 3 uM after 72 hrs relative to control; assay type: functional; conditions: B16-4A5, 72 h
[2] = Antimelanogenic activity in theophylline-stimulated mouse B16-4A5 cells assessed as inhibition of melanogenesis at 10 uM after 72 hrs relative to control; assay type: functional; conditions: B16-4A5, 72 h
[3] = Antimelanogenic activity in theophylline-stimulated mouse B16-4A5 cells assessed as inhibition of melanogenesis after 72 hrs relative to control; assay type: functional, cell-based
[4] = Cytotoxicity against theophylline-stimulated mouse B16-4A5 cells assessed as cell viability at 3 uM after 72 hrs by MTT assay relative to control; assay type: toxicity; conditions: theophylline-stimulated B16-4A5 cells, read-out: Activity
[5] = Cytotoxicity against theophylline-stimulated mouse B16-4A5 cells assessed as cell viability at 10 uM after 72 hrs by MTT assay relative to control; assay type: toxicity; conditions: theophylline-stimulated B16-4A5 cells, read-out: Activity
[6] = Cytotoxicity against theophylline-stimulated mouse B16-4A5 cells assessed as cell viability at 30 uM after 72 hrs by MTT assay relative to control; assay type: toxicity; conditions: theophylline-stimulated B16-4A5 cells, read-out: Activity
[7] = Cytotoxicity against theophylline-stimulated mouse B16-4A5 cells assessed as cell viability at 100 uM after 72 hrs by MTT assay relative to control; assay type: toxicity; conditions: theophylline-stimulated B16-4A5 cells, read-out: Activity
cells [8] = conditions: Mus musculus, B16-4A5, 72 h, read-out: INH
Description: Antimelanogenic activity in theophylline-stimulated mouse B16-4A5 cells assessed as inhibition of melanogenesis at 30 uM after 72 hrs relative to control

cells [9] = conditions: Mus musculus, B16-4A5, 72 h, read-out: INH; remark: listed apart in the source
[10] = Antimelanogenic activity in theophylline-stimulated mouse B16-4A5 cells assessed as inhibition of melanogenesis at 0.3 uM after 72 hrs relative to control; assay type: functional; conditions: B16-4A5, 72 h
[11] = Antimelanogenic activity in theophylline-stimulated mouse B16-4A5 cells assessed as inhibition of melanogenesis at 1 uM after 72 hrs relative to control; assay type: functional; conditions: B16-4A5, 72 h
[12] = Cytotoxicity against theophylline-stimulated mouse B16-4A5 cells assessed as cell viability at 0.3 uM after 72 hrs by MTT assay relative to control; assay type: toxicity; conditions: theophylline-stimulated B16-4A5 cells, read-out: Activity
[13] = Cytotoxicity against theophylline-stimulated mouse B16-4A5 cells assessed as cell viability at 1 uM after 72 hrs by MTT assay relative to control; assay type: toxicity; conditions: theophylline-stimulated B16-4A5 cells, read-out: Activity
[14] = Downregulation of tyrosinase expression in theophylline-stimulated mouse B16-4A5 cells assessed as ratio of tyrosinase mRNA expression to beta-actin mRNA expression at 3 uM after 72 hrs by qRT-PCR analysis (reference value: […] +/- […]); assay type: functional, cell-based
[15] = Downregulation of tyrosinase expression in theophylline-stimulated mouse B16-4A5 cells assessed as ratio of tyrosinase mRNA expression to beta-actin mRNA expression at 10 uM after 72 hrs by qRT-PCR analysis (reference value: […] +/- […]); assay type: functional, cell-based
[16] = Downregulation of TRP1 expression in theophylline-stimulated mouse B16-4A5 cells assessed as ratio of TRP1 mRNA expression to beta-actin mRNA expression at 3 uM after 72 hrs by qRT-PCR analysis (reference value: […] +/- […]); assay type: functional, cell-based
[17] = Downregulation of TRP1 expression in theophylline-stimulated mouse B16-4A5 cells assessed as ratio of TRP1 mRNA expression to beta-actin mRNA expression at 10 uM after 72 hrs by qRT-PCR analysis (reference value: […] +/- […]); assay type: functional, cell-based
[18] = Downregulation of TRP2 expression in theophylline-stimulated mouse B16-4A5 cells assessed as ratio of TRP2 mRNA expression to beta-actin mRNA expression at 3 uM after 72 hrs by qRT-PCR analysis (reference value: […] +/- […]); assay type: functional, cell-based
[19] = Downregulation of TRP2 expression in theophylline-stimulated mouse B16-4A5 cells assessed as ratio of TRP2 mRNA expression to beta-actin mRNA expression at 10 uM after 72 hrs by qRT-PCR analysis (reference value: […] +/- […]); assay type: functional, cell-based

| SMILES | inhibition at 3 µM [1] [%] | inhibition at 10 µM [2] [%] | IC50 [3] [µM] | viability at 72 h, 3 µM [4] [%] | viability at 72 h, 10 µM [5] [%] | viability at 72 h, 30 µM [6] [%] | viability at 72 h, 100 µM [7] [%] | inhibition at 30 µM (cells [8]) [%] | inhibition at 100 µM (cells [9]) [%] | inhibition at 0.3 µM [10] [%] | inhibition at 1 µM [11] [%] | viability at 72 h, 0.3 µM [12] [%] | viability at 72 h, 1 µM [13] [%] | Ratio [14] | Ratio [15] | Ratio [16] | Ratio [17] | Ratio [18] | Ratio [19] |
| --- | --- | --- | --- | --- | --- | --- | --- | --- | --- | --- | --- | --- | --- | --- | --- | --- | --- | --- | --- |
| C=C[C@H](O)c1ccc(OC(C)=O)cc1 | -6.7 | -0.4 | 88.5 | 87.9 | 97.2 | 101 | 114 | 14.9 | 56.7 |  |  |  |  |  |  |  |  |  |  |
| C=C[C@@H](OC/C=C/c1ccc(OC(C)=O)cc1)c1ccc(OC(C)=O)cc1 | 71.4 | 137 | 1.9 | 81.5 | 29.7 |  |  |  |  | 10.8 | 31.8 | 107 | 102 | 0.84 | 0.56 | 0.92 | 0.94 | 1.67 | 0.88 |
| CC[C@H](OC(C)=O)c1ccc(OC(C)=O)cc1 | 41.6 | 44.5 | 10.5 | 106 | 105 | 96.5 | 94.5 | 74.1 | 105 |  |  |  |  |  |  |  |  |  |  |
| COc1cc(/C=C/C=O)ccc1O [CONIFERYL ALDEHYDE] | 17 | 23.7 | 15.3 | 101 | 85.8 | 74.2 | 44.7 | 100 | 87.7 |  |  |  |  |  |  |  |  |  |  |
| CC(=O)OC/C=C/c1ccc(O)cc1 | 4.1 | 0 |  | 99.2 | 100 | 96.1 | 90.1 | -3 | -13.4 |  |  |  |  |  |  |  |  |  |  |
| C=C[C@@H](OC(C)=O)c1ccc(OC(C)=O)cc1 | 36.8 | 69.2 | 4.5 | 95.2 | 88.7 |  |  |  |  | 8.4 | 21.2 | 96.6 | 98.8 |  |  |  |  |  |  |
| C=CC(OC(C)=O)c1ccc(OC(C)=O)cc1 (racemic) | 35.1 | 103 | 4.4 | 108 | 31.8 |  |  |  |  | 5 | 4.4 | 102 | 104 |  |  |  |  |  |  |
| O=Cc1ccc(O)cc1 [4-HYDROXYBENZALDEHYDE] | 11.3 | 4.2 |  | 107 | 103 | 107 | 103 | 7.9 | 3.5 |  |  |  |  |  |  |  |  |  |  |
| C=CC(OC/C=C/c1ccc(OC(C)=O)cc1)c1ccc(OC(C)=O)cc1 (racemic) | 57.2 | -5.5 | 2.2 | 85.2 | 12.9 |  |  |  |  | 10.3 | 32.4 | 105 | 99.3 | 0.77 | 0.6 | 0.79 | 0.81 | 0.86 | 0.81 |
| COC/C=C/c1ccc(O)cc1 | 18.2 | 25.1 | 19.5 | 109 | 104 | 93.6 | 107 | 56.9 | 81.7 |  |  |  |  |  |  |  |  |  |  |
| COc1cc(C=O)ccc1O [VANILLIN] | -8.4 | 8.4 | 49.2 | 108 | 104 | 104 | 106 | 49.7 | 96.1 |  |  |  |  |  |  |  |  |  |  |
